Laboratory results: patent US9242996B2 (Novartis AG, priority 2013, dated 2016)

What follows are compounds tested against activated ERK2 (Homo sapiens (Human), UniProt P28482) (assay: Activated ERK2 (20 pM) Kinase Assay (AlphaScreen, ERKtide phosphorylation)). Conditions: 0.02 nM ERK2, 400 nM ERKtide peptide, 35 μM ATP, 30 min preincubation.
Assay type: biochemical
Method in brief: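 AlphaScreen read-out (anti-phospho-EGFR Thr669 antibody, protein A acceptor/streptavidin donor beads) of ERKtide (400 nM) phosphorylation by 20 pM activated ERK2 at 35 μM ATP.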

activated ERK2, sequence (P28482 whole entry): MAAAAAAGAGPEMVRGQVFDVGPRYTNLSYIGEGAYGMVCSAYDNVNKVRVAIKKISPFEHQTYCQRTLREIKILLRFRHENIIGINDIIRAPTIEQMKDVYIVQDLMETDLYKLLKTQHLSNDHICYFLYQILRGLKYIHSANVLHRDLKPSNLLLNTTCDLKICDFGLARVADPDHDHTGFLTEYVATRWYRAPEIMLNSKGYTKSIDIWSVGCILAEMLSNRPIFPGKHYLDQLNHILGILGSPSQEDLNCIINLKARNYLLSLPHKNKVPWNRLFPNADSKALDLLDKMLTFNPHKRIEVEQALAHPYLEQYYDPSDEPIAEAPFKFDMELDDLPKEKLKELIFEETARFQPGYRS

| Structure (SMILES) | IC50 [nM] |
| --- | --- |
| NC[C@@H](NC(=O)c1ccc(-c2nc(C3CCCC(O)C3)cnc2N)cc1F)c1cccc(Cl)c1 (single isomer, unassigned) [Example 370] | 0.138 |
| Cn1nccc1-c1cnc(N)c(-c2ccc(C(=O)N[C@H](CO)c3cccc(CF)c3)c(F)c2)c1 [Example 254, (S)-4-(2-amino-5-(1-methyl-1H-pyrazol-5-yl)pyridin-3-yl)-2-fluoro-N-(1-(3-(fluoromethyl)phenyl)-2-hydroxyethyl) benzamide] | 0.0599 |
| Nc1ncc(C2CCOCC2)nc1-c1ccc(C(=O)N[C@H](CO)c2cc(F)cc(CF)c2)c(F)c1 [Example 329, (S)-4-(3-amino-6-(tetrahydro-2H-pyran-4-yl)pyrazin-2-yl)-2-fluoro-N-(1-(3-fluoro-5-(fluoromethyl)phenyl)-2-hydroxyethyl) benzamide] | 0.01 |
| Nc1ncc([C@H]2CC[C@H](O)CC2)nc1-c1ccc(C(=O)N[C@H](CO)c2cccc(Br)c2)c(F)c1 [Example 436, 4-(3-amino-6-((1r,4S)-4-hydroxy-cyclohexyl)pyrazin-2-yl)-N-((S)-1-(3-bromophenyl)-2-hydroxyethyl)-2-fluorobenzamide] | 0.0485 |
| Cn1nncc1-c1cnc(N)c(-c2ccc(C(=O)N[C@H](CO)c3cc(F)cc(Br)c3)c(F)c2)c1 [Example 265] | 0.031 |
| Cn1nncc1-c1cnc(N)c(-c2ccc(C(=O)N[C@H](CO)c3cccc(C(F)F)c3)c(F)c2)c1 [Example 301] | 0.0933 |
| Nc1ncc(C2CCOCC2)nc1-c1ccc(C(=O)N[C@H](CO)c2cc(F)cc(Br)c2)c(F)c1 [Example 259, (S)-4-(3-amino-6-(tetrahydro-2H-pyran-4-yl)pyrazin-2-yl)-N-(1-(3-bromo-5-fluorophenyl)-2-hydroxyethyl)-2-fluorobenzamide] | 0.0127 |
| Nc1ncc([C@@H]2CCC(F)(F)[C@H](O)C2)nc1-c1ccc(C(=O)N[C@H](CO)c2cccc(Cl)c2)c(F)c1 [Example 471, 4-(3-amino-6-((1R,3R)-4,4-difluoro-3-hydroxycyclo-hexyl)pyrazin-2-yl)-N-((S)-1-(3-chlorophenyl)-2-hydroxyethyl)-2-fluorobenzamide] | 0.483 |
| CSc1cc(F)cc([C@@H](CO)NC(=O)c2ccc(-c3nc(C4CCOCC4)cnc3N)cc2F)c1 [Example 395, (S)-4-(3-amino-6-(tetrahydro-2H-pyran-4-yl)pyrazin-2-yl)-2-fluoro-N-(1-(3-fluoro-5-(methylthio)phenyl)-2-hydroxyethyl) benzamide] | 0.00827 |
| COC(=O)N[C@H]1CC[C@H](c2cnc(N)c(-c3ccc(C(=O)N[C@H](CO)c4cc(F)cc(Br)c4)c(F)c3)n2)CC1 [Example 441, Methyl ((1S,4r)-4-(5-amino-6-(4-(((S)-1-(3-bromo-5-fluorophenyl)-2-hydroxyethyl)carbamoyl)-3-fluorophenyl)pyrazin-2-yl)cyclohexyl) carbamate] | 0.0559 |
| Nc1ncc(C2CCOCC2)nc1-c1ccc(C(=O)N[C@H](CO)c2cc(F)cc(CCl)c2)c(F)c1 [Example 390, (S)-4-(3-amino-6-(tetrahydro-2H-pyran-4-yl)pyrazin-2-yl)-N-(1-(3-(chloromethyl)-5-fluorophenyl)-2-hydroxyethyl)-2-fluorobenzamide] | 0.0242 |
| CO[C@H]1CC[C@H](c2cnc(N)c(-c3ccc(C(=O)N[C@H](CN)c4cccc(Cl)c4)c(F)c3)n2)CC1 [Example 18, N—((S)-2-amino-1-(3-chlorophenyl)ethyl)-4-(3-amino-6-((1r,4S)-4-methoxycyclohexyl)pyrazin-2-yl)-2-fluorobenzamide] | 0.0396 |
| CCNC[C@@H](NC(=O)c1ccc(-c2nc([C@H]3CC[C@H](O)CC3)cnc2N)cc1F)c1cccc(Br)c1 [Example 379, 4-(3-amino-6-((1r,4S)-4-hydroxy-cyclohexyl)pyrazin-2-yl)-N-((S)-1-(3-bromophenyl)-2-(ethylamino)ethyl)-2-fluorobenzamide] | 0.0617 |
| Cc1c(-c2cnc(N)c(-c3ccc(C(=O)N[C@H](CO)c4cccc(C(F)F)c4)c(F)c3)c2)cnn1C(F)F [Example 275, (S)-4-(2-amino-5-(1-(difluoromethyl)-5-methyl-1H-pyrazol-4-yl)pyridin-3-yl)-N-(1-(3-(difluoromethyl)phenyl)-2-hydroxyethyl)-2-fluorobenzamide] | 0.0745 |
| Nc1ncc([C@H]2CC[C@H](O)[C@@H](O)C2)nc1-c1ccc(C(=O)N[C@H](CO)c2cc(F)cc(Br)c2)c(F)c1 [Example 467, 4-(3-amino-6-((1S,3S,4S)-3,4-dihydroxy-cyclohexyl)pyrazin-2-yl)-2-fluoro-N-((S)-1-(3-fluoro-5-bromophenyl)-2-hydroxyethyl) benzamide] | 0.0446 |
| CNC[C@@H](NC(=O)c1ccc(-c2nc([C@H]3CC[C@H](O)[C@@H](F)C3)cnc2N)cc1F)c1cc(F)cc(I)c1 [Example 357, 4-(3-amino-6-((1S,3S,4S)-3-fluoro-4-hydroxy-cyclohexyl)pyrazin-2-yl)-2-fluoro-N-((S)-1-(3-fluoro-5-iodophenyl)-2-(methylamino)ethyl)benzamide] | 0.0143 |
| CNC[C@@H](NC(=O)c1ccc(-c2nc([C@H]3CC[C@H](O)[C@H](F)C3)cnc2N)cc1F)c1cc(F)cc(Br)c1 [Example 356, 4-(3-amino-6-((1S,3R,4S)-3-fluoro-4-hydroxy-cyclohexyl)pyrazin-2-yl)-N-((S)-1-(3-bromo-5-fluorophenyl)-2-(methylamino)ethyl)-2-fluorobenzamide] | 0.0317 |
| CO[C@H]1CC[C@H](c2cnc(N)c(-c3ccc(C(=O)N[C@H](CN)c4cccc(Br)c4)c(F)c3)n2)CC1 [Example 383, N-((S)-2-amino-1-(3-bromophenyl)ethyl)-4-(3-amino-6-((1r,4S)-4-methoxy-cyclohexyl)pyrazin-2-yl)-2-fluorobenzamide] | 0.0689 |
| NC[C@@H](NC(=O)c1ccc(-c2nc(C3CCOCC3)cnc2N)cc1F)c1cc(F)cc(I)c1 [Example 179, (S)—N-(2-amino-1-(3-fluoro-5-iodophenyl)ethyl)-4-(3-amino-6-(tetrahydro-2H-pyran-4-yl)pyrazin-2-yl)-2-fluorobenzamide] | 0.00612 |
| Nc1ncc([C@H]2CC[C@@H](O)CC2)nc1-c1ccc(C(=O)N[C@H](CO)c2cccc(I)c2)c(F)c1 [Example 347, 4-(3-amino-6-((1s,4R)-4-hydroxy-cyclohexyl)pyrazin-2-yl)-2-fluoro-N-((S)-2-hydroxy-1-(3-iodophenyl)ethyl) benzamide] | 0.193 |
| Nc1ncc(C2CCC(F)(F)CC2)nc1-c1ccc(C(=O)N[C@H](CO)c2cccc(Cl)c2)c(F)c1 [Example 435, (S)-4-(3-amino-6-(4,4-difluoro-cyclohexyl)pyrazin-2-yl)-N-(1-(3-chlorophenyl)-2-hydroxyethyl)-2-fluorobenzamide] | 0.105 |
| Cc1c(-c2cnc(N)c(-c3ccc(C(=O)N[C@H](CO)c4cc(F)cc(CF)c4)c(F)c3)c2)cnn1C [Example 242, (S)-4-(2-amino-5-(1,5-dimethyl-1H-pyrazol-4-yl)pyridin-3-yl)-2-fluoro-N-(1-(3-fluoro-5-(fluoromethyl)phenyl)-2-hydroxyethyl) benzamide] | 0.00875 |
| Nc1ncc([C@H]2CC[C@@H](O)[C@@H](O)C2)nc1-c1ccc(C(=O)N[C@H](CO)c2cc(F)cc(I)c2)c(F)c1 [Example 464, 4-(3-amino-6-((1S,3S,4R)-3,4-dihydroxy-cyclohexyl)pyrazin-2-yl)-2-fluoro-N-((S)-1-(3-fluoro-5-iodophenyl)-2-hydroxyethyl) benzamide] | 0.137 |
| NC[C@@H](NC(=O)c1ccc(-c2nc([C@@H]3CC[C@@H](O)[C@H](F)C3)cnc2N)cc1F)c1cc(F)cc(I)c1 [Example 315, N-((S)-2-amino-1-(3-fluoro-5-iodophenyl)ethyl)-4-(3-amino-6-((1R,3R,4R)-3-fluoro-4-hydroxy-cyclohexyl)pyrazin-2-yl)-2-fluorobenzamide] | 0.005 |
| CN1C[C@@H](NC(=O)c2ccc(-c3cc(-c4cnn(C)c4)cnc3N)cc2F)[C@H](c2ccc(F)c(Cl)c2)C1 (stereo in doubt) [Example 207, trans-4-(2-amino-5-(1-methyl-1H-pyrazol-4-yl)pyridin-3-yl)-N-((3S,4R)-4-(3-chloro-4-fluorophenyl)-1-methylpyrrolidin-3-yl)-2-fluorobenzamide] | 430 |
| NC[C@@H](NC(=O)c1ccc(-c2nc(C3CCOCC3)cnc2N)cc1F)c1cc(F)cc(Cl)c1 [Example 181, (S)—N-(2-amino-1-(3-chloro-5-fluorophenyl)ethyl)-4-(3-amino-6-(tetrahydro-2H-pyran-4-yl)pyrazin-2-yl)-2-fluorobenzamide] | 0.0119 |
| COC(=O)NC[C@@H](NC(=O)c1ccc(-c2nc(C3CCOCC3)cnc2N)cc1F)c1cccc(Br)c1 [Example 409, (S)-methyl (2-(4-(3-amino-6-(tetrahydro-2H-pyran-4-yl)pyrazin-2-yl)-2-fluoro-benzamido)-2-(3-bromophenyl)ethyl)carbamate] | 0.225 |
| Cc1c(-c2cnc(N)c(-c3ccc(C(=O)N[C@H](CO)c4cc(F)cc(C(F)F)c4)c(F)c3)c2)cnn1C(F)F [Example 273, (S)-4-(2-amino-5-(1-(difluoromethyl)-5-methyl-1H-pyrazol-4-yl)pyridin-3-yl)-N-(1-(3-(difluoromethyl)-5-fluorophenyl)-2-hydroxyethyl)-2-fluorobenzamide] | 0.0482 |
| C[C@@H](NC(=O)c1ccc(-c2cc([C@H]3CC[C@H](O)CC3)cnc2N)cc1F)c1cc(F)cc(S(C)(=O)=O)c1 [Example 443, 4-(2-amino-5-((1r,4R)-4-hydroxy-cyclohexyl)pyridin-3-yl)-2-fluoro-N-((R)-1-(3-fluoro-5-(methylsulfonyl)phenyl)ethyl) benzamide] | 0.345 |
| CNC[C@@H](NC(=O)c1ccc(-c2nc([C@@H]3CC[C@@H](O)[C@H](F)C3)cnc2N)cc1F)c1cccc(Br)c1 [Example 359, 4-(3-amino-6-((1R,3R,4R)-3-fluoro-4-hydroxy-cyclohexyl)pyrazin-2-yl)-N-((S)-1-(3-bromophenyl)-2-(methylamino)ethyl)-2-fluorobenzamide] | 0.076 |
